In patent publication US20120252774A1, “STEROID TETROL SOLID STATE FORMS - 2” (priority 2010, published 2012):

Experiments:
[1] = tested on: bone marrow-derived mast cells (BMMC); assay: mast cell stimulus-coupled degranulation (release of β-glucuronidase); assay type: cell-based, Balb/C mice
Protocol: In another protocol, a population of mast cells was cultivated from murine bone marrow as follows. Briefly, bone marrows from Balb/C mice were flushed from the femur using PBS and a 27 g needle. The cells were cultured in a mixture of ⅔ RPMI-1640 with 19% FBS and cells that secreted IL-3. The bone marrow cells were allowed to differentiate for 18-25 days in the IL-3-containing mixture before being used for experiments. Bone marrow cells cultured in this manner have a phenotype similar to mucosal mast cells and are referred to as bone marrow-derived mast cells (BMMC).
The homogeneity of the in vitro propagated mast cells was checked by conventional flow cytometric techniques and staining for cell-type specific markers. Between days 14 and 21 of propagation, mature mast cells were harvested and prepared for the test cultures. The objective was to assess of the effect of compounds such as dehydroepiandrosterone on mast cell stimulus-coupled degranulation. Prepared mast cells were dispensed into test culture wells at a density of 1×10^7 cells/mL. In control cultures, mast cells were induced to degranulate after cross linking of IgE receptors with IgE antigen-antibody complexes. In parallel groups of cultures mast cells were preincubated dehydroepiandrosterone at various doses followed by activation using anti-IgE antibody. There was no detectable degranulation of mast cells as measured by release of β-glucuronidase from cytosolic storage granules of the cells in the absence of the stimulus. Introduction of anti-Ig-E receptor antibody to the cultures caused a significant release of β-glucuronidase.

[2] = tested on: ovalbumin (OVA) sensitized mouse model of asthma; assay: ovalbumin (OVA) sensitized mouse model of asthma; assay type: in vivo, BALB/c mice; details: for IL-13: once daily subcutaneous injection, dexamethasone 5 mg/kg, triol 1 mg/mouse; for level of IL-5 in lung tissue: vehicle value stated for day 38, subcutaneous treatment
Protocol: BALB/c mice were sensitized by intraperitoneal injection with OVA (in alum adjuvant) on days 1, and 12. Airways were challenged with OVA on days 28 and 30 by delivery of OVA to the lung, or with saline. On day 31, six mice were with saline and 6 mice challenged with OVA were sacrificed and lung tissue was analyzed. The remaining animals were divided into 6 groups (6 mice per group). Groups of the mice were treated once daily by subcutaneous injection as follows. Group 1 vehicle control (0.1% carboxymethyl cellulose, 0.9% saline, 2% Tween 80, 0.05% phenol). Group 2 dexamethasone (5 mg/kg). Group 3 androstane-3α,16α,17α-triol (1 mg/mouse). Three animals in groups 1-3 were sacrificed on day 35 at 1 hr after final treatment and the remaining 3 animals in groups 1-3 were sacrificed on day 38.

[3] = day 35, 1 hr after final treatment

Compound | inhibition at 100 µM ([1]; Mus musculus, BMMC, 100 μM, pre-exposed 5 to 10 minutes before activation with anti-IgE antigen-antibody complexes) | inhibition of degranulation at lower levels ([1]; levels lower than 100 μM) | degranulation on exposure to compound alone ([1]; no stimulus, release of β-glucuronidase) | capacity to limit eosinophil burden and reduce key inflammatory mediators (IL-5, IL-13, cysteinyl leukotrienes) ([2]; OVA sensitized mice) | IL-13 increase (rebound) after treatment ([2]; compared with dexamethasone treated animals) | IL-13 [2, 3] | IL-13 ([2]; day 38) | level of IL-5 in lung tissue [2]
C[C@]12CC[C@H](O)CC1=CC[C@@H]1[C@@H]2CC[C@]2(C)C(=O)CC[C@@H]12 [dehydroepiandrosterone] | ~70% | proportionately less capacity to inhibit degranulation | no measurable degranulation | – | – | – | – | –
C[C@]12CC[C@H]3[C@@H](CCC4C[C@H](O)CC[C@@]43C)[C@@H]1C[C@@H](O)[C@H]2O (stereo partly drawn) [androstane-3α,16α,17α-triol] | – | – | – | limit eosinophil burden and to reduce key inflammatory mediators | did not generate an IL-13 increase | 195 pg/mL | 210 pg/mL | 90 pg/mL
C[C@@H]1C[C@H]2[C@@H]3CCC4=CC(=O)C=C[C@]4(C)[C@@]3(F)[C@@H](O)C[C@]2(C)[C@@]1(O)C(=O)CO [dexamethasone] | – | – | – | – | – | 340 pg/mL | 390 pg/mL | 145 pg/mL
